From patent US11753445B2, “Therapeutic peptides” (COHBAR, INC., priority 2016, dated 2023) come the findings set out here.

Peptide text beside a SMILES is read from it.

This assay deals with 3T3-L1 Adipocytes. Description: Free fatty acid levels in cultured mouse 3T3-L1 adipocytes, isoproterenol stimulated (Example 2). The format is cell-based. As to conditions: test peptides 25 μM; isoproterenol 1 nM. Here is the method:
Mouse 3T3-L1 cells were seeded at a density between 1,000-20,000 cells per well on 96-well, 48-well, or 24-well plates in Pre-adipocyte Medium (Zen-Bio, Durham, N.C.) and grown to confluence at 37° C. in a humidified atmosphere of 5% CO2/95% air. Two days after confluence, cells were placed in Adipocyte Differentiation Medium (Zen-Bio, Durham, N.C.) and cultured for three additional days at 37° C. in a humidified atmosphere of 5% CO2/95% air. The culture media was then replaced with Adipocyte Maintenance Medium (Zen-Bio) and the cells were maintained for an additional 9-14 days at 37° C. in a humidified atmosphere of 5% CO2/95% air with partial medium replacement every other day. Following 12-17 days of differentiation, test peptides were added at a final concentration of 25 μM and incubated for 18-20 hours in Adipocyte Maintenance Medium at 37° C. in a humidified atmosphere of 5% CO2/95%. After 18-20 hours, the media was exchanged with fresh Adipocyte Maintenance Medium containing test peptides and incubated for 1 h at 37° C. in a humidified atmosphere of 5% CO2/95%. After 1 h media was exchanged with Assay Buffer (Zen-Bio) containing isoproterenol (1 nM) (added to all samples except untreated controls) and the test peptides. Cells were incubated for a further 3 hours at 37° C. in a humidified atmosphere of 5% CO2/95%. Free fatty acid concentrations in the media were determined using a Free Fatty Acid Assay Kit (Zen-Bio) according to the manufacturer's instructions using a plate reader (540 nm).
Absorbance values were corrected for untreated background and expressed relative to isoproterenol treated cells. Treatment with isoproterenol (1 nM) alone was used as the free fatty acid level stimulatory control. The relative standard deviation of the isoproterenol control was <10%. […] Free fatty acid levels for insulin (100 nM) treatment were <5% of the isoproterenol control value.
For `CC[C@H](C)[C@H](NC(=O)[C@H](Cc1ccc(O)cc1)NC(=O)CNC(=O)[C@H](CCSC)NC(=O)[C@H](CCC(=O)O)NC(=O)[C@H](CCC(N)=O)NC(=O)[C@H](Cc1c[nH]c2ccccc12)NC(=O)[C@H](CCCNC(=N)N)NC(=O)[C@@H](C)NC(C)=O)C(=O)N[C@@H](Cc1ccccc1)C(=O)N[C@@H](Cc1ccc(O)cc1)C(=O)N1CCC[C@H]1C(=O)N[C@@H](CCCNC(=N)N)C(=O)N[C@@H](CCCCN)C(=O)N[C@@H](CC(C)C)C(=O)N[C@@H](CCCNC(=N)N)C(N)=O` [compound 152] (HELM PEPTIDE1{[ac].[dA].R.W.Q.E.M.G.Y.I.F.Y.P.R.K.L.R.[am]}$$$$V2.0), the “Free Fatty Acid Levels in 3T3-L1 Adipocytes Expressed as a Percent of Isoproterenol Control: Percent of Control Value” was 81.9%.
For the compound `CC[C@H](C)[C@H](NC(=O)[C@H](Cc1ccc(O)cc1)NC(=O)CNC(=O)[C@H](CCSC)NC(=O)[C@H](CCC(=O)O)NC(=O)[C@H](CCC(N)=O)NC(=O)[C@H](Cc1c[nH]c2ccccc12)NC(=O)[C@@H](C)NC(=O)[C@H](CCSC)NC(C)=O)C(=O)N[C@@H](Cc1ccccc1)C(=O)N[C@@H](Cc1ccc(O)cc1)C(=O)N1CCC[C@H]1C(=O)N[C@@H](CCCNC(=N)N)C(=O)N[C@@H](CCCCN)C(=O)N[C@@H](CC(C)C)C(=O)N[C@@H](CCCNC(=N)N)C(N)=O` [compound 153] (HELM PEPTIDE1{[ac].M.[dA].W.Q.E.M.G.Y.I.F.Y.P.R.K.L.R.[am]}$$$$V2.0), the “Free Fatty Acid Levels in 3T3-L1 Adipocytes Expressed as a Percent of Isoproterenol Control: Percent of Control Value” turned out to be 93.1%.
The figure for `CC[C@H](C)[C@H](NC(=O)[C@H](Cc1ccc(O)cc1)NC(=O)CNC(=O)[C@H](CCSC)NC(=O)[C@H](CCC(=O)O)NC(=O)[C@H](CCC(N)=O)NC(=O)[C@@H](C)NC(=O)[C@H](CCCNC(=N)N)NC(=O)[C@H](CCSC)NC(C)=O)C(=O)N[C@@H](Cc1ccccc1)C(=O)N[C@@H](Cc1ccc(O)cc1)C(=O)N1CCC[C@H]1C(=O)N[C@@H](CCCNC(=N)N)C(=O)N[C@@H](CCCCN)C(=O)N[C@@H](CC(C)C)C(=O)N[C@@H](CCCNC(=N)N)C(N)=O` [compound 154] (HELM PEPTIDE1{[ac].M.R.[dA].Q.E.M.G.Y.I.F.Y.P.R.K.L.R.[am]}$$$$V2.0) is 95.7%; for `CC[C@H](C)[C@H](NC(=O)[C@H](Cc1ccc(O)cc1)NC(=O)CNC(=O)[C@H](CCSC)NC(=O)[C@H](CCC(=O)O)NC(=O)[C@@H](C)NC(=O)[C@H](Cc1c[nH]c2ccccc12)NC(=O)[C@H](CCCNC(=N)N)NC(=O)[C@H](CCSC)NC(C)=O)C(=O)N[C@@H](Cc1ccccc1)C(=O)N[C@@H](Cc1ccc(O)cc1)C(=O)N1CCC[C@H]1C(=O)N[C@@H](CCCNC(=N)N)C(=O)N[C@@H](CCCCN)C(=O)N[C@@H](CC(C)C)C(=O)N[C@@H](CCCNC(=N)N)C(N)=O` [compound 155] (HELM PEPTIDE1{[ac].M.R.W.[dA].E.M.G.Y.I.F.Y.P.R.K.L.R.[am]}$$$$V2.0) it is 90.1%; for `CC[C@H](C)[C@H](NC(=O)[C@H](Cc1ccc(O)cc1)NC(=O)CNC(=O)[C@H](CCSC)NC(=O)[C@@H](C)NC(=O)[C@H](CCC(N)=O)NC(=O)[C@H](Cc1c[nH]c2ccccc12)NC(=O)[C@H](CCCNC(=N)N)NC(=O)[C@H](CCSC)NC(C)=O)C(=O)N[C@@H](Cc1ccccc1)C(=O)N[C@@H](Cc1ccc(O)cc1)C(=O)N1CCC[C@H]1C(=O)N[C@@H](CCCNC(=N)N)C(=O)N[C@@H](CCCCN)C(=O)N[C@@H](CC(C)C)C(=O)N[C@@H](CCCNC(=N)N)C(N)=O` [compound 156] (HELM PEPTIDE1{[ac].M.R.W.Q.[dA].M.G.Y.I.F.Y.P.R.K.L.R.[am]}$$$$V2.0) it is 94.7%.
As for `CC[C@H](C)[C@H](NC(=O)[C@H](Cc1ccc(O)cc1)NC(=O)CNC(=O)[C@@H](C)NC(=O)[C@H](CCC(=O)O)NC(=O)[C@H](CCC(N)=O)NC(=O)[C@H](Cc1c[nH]c2ccccc12)NC(=O)[C@H](CCCNC(=N)N)NC(=O)[C@H](CCSC)NC(C)=O)C(=O)N[C@@H](Cc1ccccc1)C(=O)N[C@@H](Cc1ccc(O)cc1)C(=O)N1CCC[C@H]1C(=O)N[C@@H](CCCNC(=N)N)C(=O)N[C@@H](CCCCN)C(=O)N[C@@H](CC(C)C)C(=O)N[C@@H](CCCNC(=N)N)C(N)=O` [compound 157] (HELM PEPTIDE1{[ac].M.R.W.Q.E.[dA].G.Y.I.F.Y.P.R.K.L.R.[am]}$$$$V2.0), the “Free Fatty Acid Levels in 3T3-L1 Adipocytes Expressed as a Percent of Isoproterenol Control: Percent of Control Value” is given as 85.0%.
The value for `CC[C@H](C)[C@H](NC(=O)[C@@H](C)NC(=O)CNC(=O)[C@H](CCSC)NC(=O)[C@H](CCC(=O)O)NC(=O)[C@H](CCC(N)=O)NC(=O)[C@H](Cc1c[nH]c2ccccc12)NC(=O)[C@H](CCCNC(=N)N)NC(=O)[C@H](CCSC)NC(C)=O)C(=O)N[C@@H](Cc1ccccc1)C(=O)N[C@@H](Cc1ccc(O)cc1)C(=O)N1CCC[C@H]1C(=O)N[C@@H](CCCNC(=N)N)C(=O)N[C@@H](CCCCN)C(=O)N[C@@H](CC(C)C)C(=O)N[C@@H](CCCNC(=N)N)C(N)=O` [compound 159] (HELM PEPTIDE1{[ac].M.R.W.Q.E.M.G.[dA].I.F.Y.P.R.K.L.R.[am]}$$$$V2.0) was 87.4%.
For `CSCC[C@H](NC(C)=O)C(=O)N[C@@H](CCCNC(=N)N)C(=O)N[C@@H](Cc1c[nH]c2ccccc12)C(=O)N[C@@H](CCC(N)=O)C(=O)N[C@@H](CCC(=O)O)C(=O)N[C@@H](CCSC)C(=O)NCC(=O)N[C@@H](Cc1ccc(O)cc1)C(=O)N[C@H](C)C(=O)N[C@@H](Cc1ccccc1)C(=O)N[C@@H](Cc1ccc(O)cc1)C(=O)N1CCC[C@H]1C(=O)N[C@@H](CCCNC(=N)N)C(=O)N[C@@H](CCCCN)C(=O)N[C@@H](CC(C)C)C(=O)N[C@@H](CCCNC(=N)N)C(N)=O` [compound 160] (HELM PEPTIDE1{[ac].M.R.W.Q.E.M.G.Y.[dA].F.Y.P.R.K.L.R.[am]}$$$$V2.0), the “Free Fatty Acid Levels in 3T3-L1 Adipocytes Expressed as a Percent of Isoproterenol Control: Percent of Control Value” worked out at 87.1%.
In the case of `CC[C@H](C)[C@H](NC(=O)[C@H](Cc1ccc(O)cc1)NC(=O)CNC(=O)[C@H](CCSC)NC(=O)[C@H](CCC(=O)O)NC(=O)[C@H](CCC(N)=O)NC(=O)[C@H](Cc1c[nH]c2ccccc12)NC(=O)[C@H](CCCNC(=N)N)NC(=O)[C@H](CCSC)NC(C)=O)C(=O)N[C@H](C)C(=O)N[C@@H](Cc1ccc(O)cc1)C(=O)N1CCC[C@H]1C(=O)N[C@@H](CCCNC(=N)N)C(=O)N[C@@H](CCCCN)C(=O)N[C@@H](CC(C)C)C(=O)N[C@@H](CCCNC(=N)N)C(N)=O` [compound 161] (HELM PEPTIDE1{[ac].M.R.W.Q.E.M.G.Y.I.[dA].Y.P.R.K.L.R.[am]}$$$$V2.0), the “Free Fatty Acid Levels in 3T3-L1 Adipocytes Expressed as a Percent of Isoproterenol Control: Percent of Control Value” is recorded as 83.7%.
The value for `CC[C@H](C)[C@H](NC(=O)[C@H](Cc1ccc(O)cc1)NC(=O)CNC(=O)[C@H](CCSC)NC(=O)[C@H](CCC(=O)O)NC(=O)[C@H](CCC(N)=O)NC(=O)[C@H](Cc1c[nH]c2ccccc12)NC(=O)[C@H](CCCNC(=N)N)NC(=O)[C@H](CCSC)NC(C)=O)C(=O)N[C@@H](Cc1ccccc1)C(=O)N[C@H](C)C(=O)N1CCC[C@H]1C(=O)N[C@@H](CCCNC(=N)N)C(=O)N[C@@H](CCCCN)C(=O)N[C@@H](CC(C)C)C(=O)N[C@@H](CCCNC(=N)N)C(N)=O` [compound 162] (HELM PEPTIDE1{[ac].M.R.W.Q.E.M.G.Y.I.F.[dA].P.R.K.L.R.[am]}$$$$V2.0) was 82.4%; that for `CC[C@H](C)[C@H](NC(=O)[C@H](Cc1ccc(O)cc1)NC(=O)CNC(=O)[C@H](CCSC)NC(=O)[C@H](CCC(=O)O)NC(=O)[C@H](CCC(N)=O)NC(=O)[C@H](Cc1c[nH]c2ccccc12)NC(=O)[C@H](CCCNC(=N)N)NC(=O)[C@H](CCSC)NC(C)=O)C(=O)N[C@@H](Cc1ccccc1)C(=O)N[C@@H](Cc1ccc(O)cc1)C(=O)N[C@H](C)C(=O)N[C@@H](CCCNC(=N)N)C(=O)N[C@@H](CCCCN)C(=O)N[C@@H](CC(C)C)C(=O)N[C@@H](CCCNC(=N)N)C(N)=O` [compound 163] (HELM PEPTIDE1{[ac].M.R.W.Q.E.M.G.Y.I.F.Y.[dA].R.K.L.R.[am]}$$$$V2.0) was 91.8%.
The value for `CC[C@H](C)[C@H](NC(=O)[C@H](Cc1ccc(O)cc1)NC(=O)CNC(=O)[C@H](CCSC)NC(=O)[C@H](CCC(=O)O)NC(=O)[C@H](CCC(N)=O)NC(=O)[C@H](Cc1c[nH]c2ccccc12)NC(=O)[C@H](CCCNC(=N)N)NC(=O)[C@H](CCSC)NC(C)=O)C(=O)N[C@@H](Cc1ccccc1)C(=O)N[C@@H](Cc1ccc(O)cc1)C(=O)N1CCC[C@H]1C(=O)N[C@H](C)C(=O)N[C@@H](CCCCN)C(=O)N[C@@H](CC(C)C)C(=O)N[C@@H](CCCNC(=N)N)C(N)=O` [compound 164] (HELM PEPTIDE1{[ac].M.R.W.Q.E.M.G.Y.I.F.Y.P.[dA].K.L.R.[am]}$$$$V2.0) was 77.2%.
